Measured values as given in ChEMBL document CHEMBL1124059, “Atypical antipsychotic agents: patterns of activity in a series of 3-substituted 2-pyridinyl-1-piperazine derivatives” (J Med Chem, 1988).
Activity calls are given as the source filed them. The rule behind the calls is not given here.

Key:
[1] = target: T1, Adrenergic receptor alpha-1 (Rattus norvegicus, UniProt P15823+P23944+P43140); test: Ability to inhibit [3H]WB-4101 binding to rat cortical alpha-1-adrenergic receptor; format: protein assay
T1 sequence (P15823 whole entry): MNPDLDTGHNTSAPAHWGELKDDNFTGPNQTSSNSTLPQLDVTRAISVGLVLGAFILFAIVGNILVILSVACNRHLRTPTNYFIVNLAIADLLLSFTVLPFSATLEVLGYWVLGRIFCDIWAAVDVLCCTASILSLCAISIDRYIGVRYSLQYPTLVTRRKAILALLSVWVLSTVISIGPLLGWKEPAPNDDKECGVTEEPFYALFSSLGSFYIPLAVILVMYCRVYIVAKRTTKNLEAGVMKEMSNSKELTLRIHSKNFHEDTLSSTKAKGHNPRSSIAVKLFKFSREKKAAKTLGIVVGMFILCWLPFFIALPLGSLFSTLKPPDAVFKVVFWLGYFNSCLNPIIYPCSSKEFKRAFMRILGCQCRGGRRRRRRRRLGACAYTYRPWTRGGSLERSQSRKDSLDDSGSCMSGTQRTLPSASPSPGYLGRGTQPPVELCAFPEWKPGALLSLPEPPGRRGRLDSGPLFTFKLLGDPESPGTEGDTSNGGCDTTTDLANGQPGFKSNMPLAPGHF
T1 sequence (P23944 whole entry): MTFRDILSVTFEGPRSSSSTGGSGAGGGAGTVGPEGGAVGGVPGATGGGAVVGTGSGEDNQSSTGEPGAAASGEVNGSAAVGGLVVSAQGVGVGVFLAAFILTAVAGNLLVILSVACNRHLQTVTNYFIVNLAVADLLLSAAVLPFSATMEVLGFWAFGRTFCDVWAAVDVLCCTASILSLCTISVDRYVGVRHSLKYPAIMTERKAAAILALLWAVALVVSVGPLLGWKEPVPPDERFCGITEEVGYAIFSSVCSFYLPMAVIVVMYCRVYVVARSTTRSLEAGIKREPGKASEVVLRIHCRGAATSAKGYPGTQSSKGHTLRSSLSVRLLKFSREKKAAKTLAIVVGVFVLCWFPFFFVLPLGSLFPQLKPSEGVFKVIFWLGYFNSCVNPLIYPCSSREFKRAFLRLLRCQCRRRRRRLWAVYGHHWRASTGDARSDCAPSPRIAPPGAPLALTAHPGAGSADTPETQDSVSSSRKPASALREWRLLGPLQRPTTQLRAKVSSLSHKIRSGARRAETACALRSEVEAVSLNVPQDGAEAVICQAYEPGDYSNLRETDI
T1 sequence (P43140 whole entry): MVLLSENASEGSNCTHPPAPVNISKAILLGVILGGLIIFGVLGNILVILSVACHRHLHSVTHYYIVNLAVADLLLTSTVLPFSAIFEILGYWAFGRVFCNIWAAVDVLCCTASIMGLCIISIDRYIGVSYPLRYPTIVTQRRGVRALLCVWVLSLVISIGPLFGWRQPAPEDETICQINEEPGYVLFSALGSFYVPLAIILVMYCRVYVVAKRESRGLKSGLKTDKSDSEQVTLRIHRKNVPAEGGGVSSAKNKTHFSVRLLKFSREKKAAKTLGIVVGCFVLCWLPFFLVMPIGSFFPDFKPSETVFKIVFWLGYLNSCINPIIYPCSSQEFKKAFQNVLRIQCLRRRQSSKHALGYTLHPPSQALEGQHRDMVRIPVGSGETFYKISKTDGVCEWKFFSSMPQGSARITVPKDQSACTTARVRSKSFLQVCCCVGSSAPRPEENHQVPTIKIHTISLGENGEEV

Rattus norvegicus [2] = species on record: Rattus norvegicus; test: Inhibition of the rat conditioned avoidance response, CAR (Tranquilizing activity, peroral); format: functional; settings: po
Rattus norvegicus [3] = test: Ability to reverse trifluoperazine-induced catalepsy in rat (po); IA = Compound induced catalepsy; format: functional, organism-based
D(2) dopamine receptor = D(2) dopamine receptor (Rattus norvegicus, UniProt P61169); test: Ability to inhibit [3H]spiperone binding to Dopamine receptor D2 in rat corpus striatum; format: tissue-based
Rattus norvegicus [4] = test: Induction of catalepsy in rat (po)
Rattus norvegicus [5] = test: In vivo inhibition of apomorphine (APO) induced stereotypy in rats (po); format: functional
Rattus norvegicus [6] = test: Ability to reverse trifluoperazine-induced catalepsy in rat (po); format: functional

D(2) dopamine receptor, sequence (P61169 whole entry): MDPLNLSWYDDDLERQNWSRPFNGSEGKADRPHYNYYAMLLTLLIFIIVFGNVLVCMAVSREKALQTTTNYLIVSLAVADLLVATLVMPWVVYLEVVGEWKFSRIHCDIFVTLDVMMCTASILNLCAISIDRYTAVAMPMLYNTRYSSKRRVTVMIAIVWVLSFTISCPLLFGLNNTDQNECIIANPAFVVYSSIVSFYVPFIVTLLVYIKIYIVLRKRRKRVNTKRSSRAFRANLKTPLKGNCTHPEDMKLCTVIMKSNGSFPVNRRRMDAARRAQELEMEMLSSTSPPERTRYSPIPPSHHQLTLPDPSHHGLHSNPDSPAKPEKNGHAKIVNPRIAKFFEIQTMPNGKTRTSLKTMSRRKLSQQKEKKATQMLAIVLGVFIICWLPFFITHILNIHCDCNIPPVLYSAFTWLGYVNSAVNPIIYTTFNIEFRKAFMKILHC

Structure (SMILES) | IC50 [1] [nM] | ED50 (Rattus norvegicus [2]) [mg/kg] | ED50 (Rattus norvegicus [3]) | IC50 (D(2) dopamine receptor) [nM] | ED50 (Rattus norvegicus [4]) [mg/kg] | ED50 (Rattus norvegicus [5]) [mg/kg] | ED50 (Rattus norvegicus [6]) [mg/kg]
CO/N=C\c1cccnc1N1CCN(CCCCN2C(=O)SC3(CCCC3)C2=O)CC1 | 67.4 | 71.3 | inactive | 428 |  |  | 
CC1(C)CC(=O)N(CCCCN2CCN(c3ncccc3Cl)CC2)C(=O)C1 |  | 25.9 |  | 360 | 104 |  | 
COC(=O)c1cccnc1N1CCN(CCCCN2C(=O)CC(C)(C)CC2=O)CC1 | 36.9 | 57 |  | > 1000 | 228 | 69.2 | 
Cc1nnc(-c2cccnc2N2CCN(CCCCN3C(=O)CC4(CCCC4)CC3=O)CC2)o1 |  | 70.9 |  | 610 |  |  | 
O=C1CSC(=O)N1CCCCN1CCN(c2ccccn2)CC1 |  | 45.8 | inactive | > 1000 |  |  | 
O=C1COCC(=O)N1CCCCN1CCN(c2ncccc2Cl)CC1 | 16 | 59.8 |  | > 1000 |  | > 63 | 
CN1CCN(C2=Nc3cc(Cl)ccc3Nc3ccccc32)CC1 |  |  | inactive |  |  |  | 
Nc1cccnc1N1CCN(CCCCN2C(=O)SC3(CCCC3)C2=O)CC1 |  | > 100 | inactive | > 1000 |  |  | 
O=C1SC2(CCCC2)C(=O)N1CCCCN1CCN(c2ncccc2Cl)CC1 | 19.9 | 66.9 | inactive | 160 |  | 50 | 
O=C1SC2(CCCC2)C(=O)N1CCCCN1CCN(c2ccccn2)CC1 |  | 20.8 | inactive | 620 |  | > 95 | 
Cc1cccnc1N1CCN(CCCCN2C(=O)CC(C)(C)CC2=O)CC1 |  | 42.1 |  | > 1000 | > 200 | > 100 | 
O=C1COCC(=O)N1CCCCN1CCN(c2ncccc2-c2ccccc2)CC1 | 16 | > 100 |  | > 41 |  | > 63 | 
O=C1SC2(CCCC2)C(=O)N1CCCCN1CCN(c2ncccc2[N+](=O)[O-])CC1 | 34.1 | 25.3 |  | 69 |  | 43.6 | 44.2
COc1cccnc1N1CCN(CCCCN2C(=O)SC3(CCCC3)C2=O)CC1 |  | 18.8 | inactive | 79 |  | < 57 | 
N#Cc1cccnc1N1CCN(CCCCN2C(=O)SC3(CCCC3)C2=O)CC1 | 35 | 38 |  | 34 |  | 29.3 | 9.2
COC(=O)c1cccnc1N1CCN(CCCCN2C(=O)SC3(CCCC3)C2=O)CC1 | 7.8 | 29.8 |  | 138 |  | 50.2 | 5.05
COc1cccc(N2CCN(CCCCN3C(=O)CC(C)(C)CC3=O)CC2)n1 | 68 | 11.9 |  | > 1000 | 48 | 76.2 | 
Cc1cccnc1N1CCN(CCCCN2C(=O)SC3(CCCC3)C2=O)CC1 |  | 46.4 | inactive | 630 |  | > 50 | 
O=C1COCC(=O)N1CCCCN1CCN(c2ncccc2[N+](=O)[O-])CC1 | 38.3 | 55 |  | > 1000 | 220 |  | 
O=C1SC2(CCCC2)C(=O)N1CCCCN1CCN(c2ncccc2-c2ccccc2)CC1 |  | > 100 | inactive | 236 |  | > 100 | 
N#Cc1cccnc1N1CCN(CCCCN2C(=O)CSC2=O)CC1 | 39 | 15.8 | inactive | > 1000 |  | > 100 | 
Cc1cccnc1N1CCN(CCCCN2C(=O)CC3(CCCC3)CC2=O)CC1 |  | 46.4 |  | 476 | > 186 |  | 
CC1(C)CC(=O)N(CCCCN2CCN(c3ncccc3-c3ccccc3)CC2)C(=O)C1 |  | 67.6 |  | 109 | 90.8 |  | 
O=Cc1cccnc1N1CCN(CCCCN2C(=O)SC3(CCCC3)C2=O)CC1 | 9.6 | 60 |  | 130 |  | 48 | 12.9
O=Cc1cccnc1N1CCN(CCCCN2C(=O)COCC2=O)CC1 |  | > 100 |  | > 1000 |  |  | 
COc1cccc(N2CCN(CCCCN3C(=O)SC4(CCCC4)C3=O)CC2)n1 |  | 35.9 | inactive | > 1000 |  | > 100 | 
